Test results as given in the NIST ThermoML archive (doi:10.1021/je050029o).
± gives the expanded uncertainty stated by the source.

Details: 298.15 K; 101.33 kPa; Liquid; Pycnometric method

Structure (SMILES)	mass density
COC(C)(C)C [2-methoxy-2-methylpropane]	740.6 ± 1.7 kg/m3
CCCCCCC [heptane]	679.5 ± 0.6 kg/m3
CC1CCCCC1 [methylcyclohexane]	765.2 ± 0.7 kg/m3
CO [methanol]	786.8 ± 0.7 kg/m3
